Experimental data from US20150065443A1, “EMBELIN-BASED DELIVERY SYSTEM FOR WATER-INSOLUBLE ACTIVE AGENTS” (priority 2012, published 2015).

Tested on: MDA-MB-231 cells
Assay: In vitro cytotoxicity, MTT assay
Conditions: various concentrations of PTX, 72 h

CC(=O)O[C@H]1C(=O)[C@@]2(C)[C@H]([C@H](OC(=O)c3ccccc3)[C@]3(O)C[C@H](OC(=O)[C@H](O)[C@@H](NC(=O)c4ccccc4)c4ccccc4)C(C)=C1C3(C)C)[C@]1(OC(C)=O)CO[C@@H]1C[C@@H]2O [PTX, Paclitaxel]
Cytotoxicity: exhibited cytotoxicity on MDA-MB-231 cells in a dose-dependent manner
